Source: US7576222B2, “Alkynyl-containing tryptophan derivative inhibitors of TACE/matrix metalloproteinase” (priority 2004, dated 2009)

target: T1, catalytic domain of the recombinant TACE protein (Homo sapiens, UniProt P78536); test: TACE FRET assay using TACE cat; format: biochemical; conditions: not given
T1 construct: The catalytic domain of the recombinant TACE protein was expressed and purified; made in house
How it was run: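 Initial fluorescence rate of Abz-[sequence]-Dpa pro-TNF-α peptide cleavage (substrate from 2 mM stock) read after adding substrate to enzyme (1 ug/ml) preincubated 10 min, room temperature, with inhibitor.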

T1 sequence (P78536 223-474 limits assumed): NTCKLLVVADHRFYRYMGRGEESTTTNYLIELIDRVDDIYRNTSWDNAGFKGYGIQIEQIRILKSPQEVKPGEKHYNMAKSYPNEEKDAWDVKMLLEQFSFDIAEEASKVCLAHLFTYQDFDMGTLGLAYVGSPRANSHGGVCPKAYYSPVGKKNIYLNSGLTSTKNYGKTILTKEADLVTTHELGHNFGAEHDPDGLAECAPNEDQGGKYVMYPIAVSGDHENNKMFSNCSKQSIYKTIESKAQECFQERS

`CC#CCOc1ccc(S(=O)(=O)N[C@@H](Cc2c(C)n(Cc3ccccc3)c3ccc(OC)cc23)C(=O)O)cc1` [Example 185, 1-benzyl-N-{[4-(but-2-ynyloxy)phenyl]sulfonyl}-5-methoxy-2-methyltryptophan] was tested. Which IC50 did it give?
Its IC50 is 200 nM.

How did the IC50 turn out when `CC#CCOc1ccc(S(=O)(=O)N[C@@H](Cc2c(C)n(Cc3ccccc3C)c3ccc(OC)cc23)C(=O)O)cc1` [Example 186, N-{[4-(but-2-ynyloxy)phenyl]sulfonyl}-5-methoxy-2-methyl-1-(2-methylbenzyl)tryptophan] was run?
Its IC50 is 280 nM.

With `CC#CCOc1ccc(S(=O)(=O)N[C@@H](Cc2c(C)n(Cc3ccc(C)cc3)c3ccc(OC)cc23)C(=O)O)cc1` [Example 188, N-{[4-(but-2-ynyloxy)phenyl]sulfonyl}-5-methoxy-2-methyl-1-(4-methylbenzyl)tryptophan] as the molecule, how does the IC50 read?
The IC50 was 270 nM.

With `CC#CCOc1ccc(S(=O)(=O)N[C@@H](Cc2c(C)n(Cc3cccc(OC)c3)c3ccc(OC)cc23)C(=O)O)cc1` [Example 190, N-{[4-(but-2-ynyloxy)phenyl]sulfonyl}-5-methoxy-1-(3-methoxybenzyl)-2-methyltryptophan] as the molecule, how does the IC50 read?
Its IC50 is 260 nM.

With `CC#CCOc1ccc(S(=O)(=O)N[C@@H](Cc2c(C)n(Cc3ccccc3C(F)(F)F)c3ccc(OC)cc23)C(=O)O)cc1` [Example 193, N-{[4-(but-2-ynyloxy)phenyl]sulfonyl}-5-methoxy-2-methyl-1-[2-(trifluoromethyl)benzyl]tryptophan] as the molecule, how does the IC50 read?
Its IC50 is 450 nM.

For `CC#CCOc1ccc(S(=O)(=O)N[C@@H](Cc2c(C)n(Cc3ccccc3F)c3ccc(OC)cc23)C(=O)O)cc1` [Example 197, N-{[4-(but-2-ynyloxy)phenyl]sulfonyl}-1-(2-fluorobenzyl)-5-methoxy-2-methyltryptophan], which IC50 is on record?
Its IC50 is 300 nM.

Which IC50 does the source give for `CC#CCOc1ccc(S(=O)(=O)N[C@@H](Cc2c(C)n(Cc3cccc(F)c3)c3ccc(OC)cc23)C(=O)O)cc1` [Example 198, N-{[4-(but-2-ynyloxy)phenyl]sulfonyl}-1-(3-fluorobenzyl)-5-methoxy-2-methyltryptophan] here?
Its IC50 is 340 nM.

For `CC#CCOc1ccc(S(=O)(=O)N[C@@H](Cc2c(C)n(Cc3ccc(Cl)cc3)c3ccc(OC)cc23)C(=O)O)cc1` [Example 201, N-{[4-(but-2-ynyloxy)phenyl]sulfonyl}-1-(4-chlorobenzyl)-5-methoxy-2-methyltryptophan], which IC50 is on record?
The IC50 was 290 nM.

With `CC#CCOc1ccc(S(=O)(=O)N[C@@H](Cc2c(C)n(Cc3cccc(C#N)c3)c3ccc(OC)cc23)C(=O)O)cc1` [Example 204, N-{[4-(but-2-ynyloxy)phenyl]sulfonyl}-1-(3-cyanobenzyl)-5-methoxy-2-methyltryptophan] as the molecule, how does the IC50 read?
Its IC50 is 480 nM.

Which IC50 does the source give for `CC#CCOc1ccc(S(=O)(=O)N[C@@H](Cc2c(C)n(Cc3ccc(C#N)cc3)c3ccc(OC)cc23)C(=O)O)cc1` [Example 205, N-{[4-(but-2-ynyloxy)phenyl]sulfonyl}-1-(4-cyanobenzyl)-5-methoxy-2-methyltryptophan] here?
The IC50 was 470 nM.

same assay, conditions: TACE FRET assay, catalytic domain of recombinant TACE; read-out: TACE IC50

How did the IC50 turn out when `C=CCOc1ccc(Cn2cc(C[C@@H](NS(=O)(=O)c3ccc(OCC#CC)cc3)C(=O)O)c3ccccc32)cc1` [Example 216, 1-[4-(allyloxy)benzyl]-N-{[4-(but-2-ynyloxy)phenyl]sulfonyl}-D-tryptophan] was run?
Its IC50 is 540 nM.

How did the IC50 turn out when `CC#CCOc1ccc(S(=O)(=O)N[C@H](Cc2cn(C(=O)OC(C)(C)C)c3ccccc23)C(=O)O)cc1` [Example 220, 1-(tert-butoxycarbonyl)-N-{[4-(but-2-ynyloxy)phenyl]sulfonyl}-D-tryptophan] was run?
Its IC50 is 3670 nM.

How did the IC50 turn out when “N-{[4-(but-2-ynyloxy)phenyl]sulfonyl}-methoxy-L(or D)-tryptophan [Example 222]” was run?
The IC50 was 10100 nM.

same assay, conditions: read-out: TACE Inhibition (%)

How did the inhibition at 1 µM turn out when `CC#CCOc1ccc(S(=O)(=O)N[C@@H](Cc2c(C)n(Cc3ccc(C(C)C)cc3)c3ccccc23)C(=O)O)cc1` [Example 157, N-{[4-(but-2-ynyloxy)phenyl]sulfonyl}-1-(4-isopropylbenzyl)-2-methyltryptophan] was run?
Its inhibition at 1 µM is 34.2%.

How did the inhibition at 1 µM turn out when `CC#CCOc1ccc(S(=O)(=O)N[C@@H](Cc2c(C)n(Cc3ccccc3C#N)c3ccccc23)C(=O)O)cc1` [Example 158, N-{[4-(but-2-ynyloxy)phenyl]sulfonyl}-1-(2-cyanobenzyl)-2-methyltryptophan] was run?
The inhibition at 1 µM was 72.1%.

For `CC#CCOc1ccc(S(=O)(=O)N[C@@H](Cc2c(C)n(Cc3cccc(C)c3)c3ccc(OC)cc23)C(=O)O)cc1` [Example 187, N-{[4-(but-2-ynyloxy)phenyl]sulfonyl}-5-methoxy-2-methyl-1-(3-methylbenzyl)tryptophan], which inhibition at 1 µM is on record?
Its inhibition at 1 µM is 78.8%.

Which inhibition at 1 µM does the source give for `CC#CCOc1ccc(S(=O)(=O)N[C@@H](Cc2c(C)n(Cc3ccccc3OC)c3ccc(OC)cc23)C(=O)O)cc1` [Example 189, N-{[4-(but-2-ynyloxy)phenyl]sulfonyl}-5-methoxy-1-(2-methoxybenzyl)-2-methyltryptophan] here?
The inhibition at 1 µM was 75.6%.

Which inhibition at 1 µM does the source give for `CC#CCOc1ccc(S(=O)(=O)N[C@@H](Cc2c(C)n(Cc3ccc(OC)cc3)c3ccc(OC)cc23)C(=O)O)cc1` [Example 191, N-{[4-(but-2-ynyloxy)phenyl]sulfonyl}-5-methoxy-1-(4-methoxybenzyl)-2-methyltryptophan] here?
Its inhibition at 1 µM is 77.5%.

For `CC#CCOc1ccc(S(=O)(=O)N[C@@H](Cc2c(C)n(Cc3cc(OC)cc(OC)c3)c3ccc(OC)cc23)C(=O)O)cc1` [Example 192, N-{[4-(but-2-ynyloxy)phenyl]sulfonyl}-1-(3,5-dimethoxybenzyl)-5-methoxy-2-methyltryptophan], which inhibition at 1 µM is on record?
The inhibition at 1 µM was 80%.

Which inhibition at 1 µM does the source give for `CC#CCOc1ccc(S(=O)(=O)N[C@@H](Cc2c(C)n(Cc3cccc(OC(F)(F)F)c3)c3ccc(OC)cc23)C(=O)O)cc1` [Example 194, N-{[4-(but-2-ynyloxy)phenyl]sulfonyl}-5-methoxy-2-methyl-1-[3-(trifluoromethoxy)benzyl]tryptophan] here?
The inhibition at 1 µM was 80.8%.

How did the inhibition at 1 µM turn out when `CC#CCOc1ccc(S(=O)(=O)N[C@@H](Cc2c(C)n(Cc3ccc(C(F)(F)F)cc3)c3ccc(OC)cc23)C(=O)O)cc1` [Example 195, N-{[4-(but-2-ynyloxy)phenyl]sulfonyl}-5-methoxy-2-methyl-1-[4-(trifluoromethyl)benzyl]tryptophan] was run?
Its inhibition at 1 µM is 78.3%.

For `CC#CCOc1ccc(S(=O)(=O)N[C@@H](Cc2c(C)n(Cc3ccc(OC(F)(F)F)cc3)c3ccc(OC)cc23)C(=O)O)cc1` [Example 196, N-{[4-(but-2-ynyloxy)phenyl]sulfonyl}-5-methoxy-2-methyl-1-[4-(trifluoromethoxy)benzyl]tryptophan], which inhibition at 1 µM is on record?
The inhibition at 1 µM was 72.8%.

How did the inhibition at 1 µM turn out when `CC#CCOc1ccc(S(=O)(=O)N[C@@H](Cc2c(C)n(Cc3cc(F)cc(F)c3)c3ccc(OC)cc23)C(=O)O)cc1` [Example 200, N-{[4-(but-2-ynyloxy)phenyl]sulfonyl}-1-(3,5-difluorobenzyl)-5-methoxy-2-methyltryptophan] was run?
Its inhibition at 1 µM is 80.5%.

With `CC#CCOc1ccc(S(=O)(=O)N[C@@H](Cc2c(C)n(Cc3ccc(C(C)C)cc3)c3ccc(OC)cc23)C(=O)O)cc1` [Example 202, N-{[4-(but-2-ynyloxy)phenyl]sulfonyl}-1-(4-isopropylbenzyl)-5-methoxy-2-methyltryptophan] as the molecule, how does the inhibition at 1 µM read?
Its inhibition at 1 µM is 67%.

How did the inhibition at 1 µM turn out when `CC#CCOc1ccc(S(=O)(=O)N[C@@H](Cc2c(C)n(Cc3ccccc3C#N)c3ccc(OC)cc23)C(=O)O)cc1` [Example 203, N-{[4-(but-2-ynyloxy)phenyl]sulfonyl}-1-(2-cyanobenzyl)-5-methoxy-2-methyltryptophan] was run?
The inhibition at 1 µM was 56.8%.

For `CC#CCOc1ccc(S(=O)(=O)N[C@@H](Cc2c(C)n(Cc3ccc(C(=O)O)cc3)c3ccc(OC)cc23)C(=O)O)cc1` [Example 207, N-{[4-(but-2-ynyloxy)phenyl]sulfonyl}-1-(4-carboxybenzyl)-5-methoxy-2-methyltryptophan], which inhibition at 1 µM is on record?
The inhibition at 1 µM was 62.1%.

How did the inhibition at 1 µM turn out when `CC#CCOc1ccc(S(=O)(=O)N[C@@H](Cc2c(C)n(C)c3ccc(OC)cc23)C(=O)O)cc1` [Example 208, N-{[4-(but-2-ynyloxy)phenyl]sulfonyl}-5-methoxy-1,2-dimethyltryptophan] was run?
The inhibition at 1 µM was 61.8%.

Which inhibition at 1 µM does the source give for `CC#CCOc1ccc(S(=O)(=O)N[C@@H](Cc2c(C)n(CC)c3ccc(OC)cc23)C(=O)O)cc1` [Example 209, N-{[4-(but-2-ynyloxy)phenyl]sulfonyl}-1-ethyl-5-methoxy-2-methyltryptophan] here?
Its inhibition at 1 µM is 69.8%.

For `CC#CCOc1ccc(S(=O)(=O)N[C@@H](Cc2c(C)n(CC(C)C)c3ccc(OC)cc23)C(=O)O)cc1` [Example 210, N-{[4-(but-2-ynyloxy)phenyl]sulfonyl}-1-isobutyl-5-methoxy-2-methyltryptophan], which inhibition at 1 µM is on record?
Its inhibition at 1 µM is 66.6%.

How did the inhibition at 1 µM turn out when `CC#CCOc1ccc(S(=O)(=O)N[C@@H](Cc2c(C)n(CCCCC)c3ccc(OC)cc23)C(=O)O)cc1` [Example 211, N-{[4-(but-2-ynyloxy)phenyl]sulfonyl}-5-methoxy-2-methyl-1-pentyltryptophan] was run?
The inhibition at 1 µM was 72.2%.

With `CC#CCOc1ccc(S(=O)(=O)N[C@@H](Cc2c(C)n(CC3CCC3)c3ccc(OC)cc23)C(=O)O)cc1` [Example 212, N-{[4-(but-2-ynyloxy)phenyl]sulfonyl}-1-(cyclobutylmethyl)-5-methoxy-2-methyltryptophan] as the molecule, how does the inhibition at 1 µM read?
Its inhibition at 1 µM is 59.5%.

How did the inhibition at 1 µM turn out when `CC#CCOc1ccc(S(=O)(=O)N[C@@H](Cc2c(C)n(CC3CCCCC3)c3ccc(OC)cc23)C(=O)O)cc1` [Example 213, N-{[4-(but-2-ynyloxy)phenyl]sulfonyl}-1-(cyclohexylmethyl)-5-methoxy-2-methyltryptophan] was run?
Its inhibition at 1 µM is 60.5%.

`CC#CCOc1ccc(S(=O)(=O)N[C@H](Cc2cn(Cc3ccc(O)cc3)c3ccccc23)C(=O)O)cc1` [Example 214, N-{[4-(but-2-ynyloxy)phenyl]sulfonyl}-1-(4-hydroxybenzyl)-D-tryptophan] was tested. Which inhibition at 1 µM did it give?
The inhibition at 1 µM was 8.77%.

Which inhibition at 1 µM does the source give for `CC#CCOc1ccc(S(=O)(=O)N[C@H](Cc2cn(Cc3ccc(OCC)cc3)c3ccccc23)C(=O)O)cc1` [Example 215, N-{[4-(but-2-ynyloxy)phenyl]sulfonyl}-1-(4-ethoxybenzyl)-D-tryptophan] here?
The inhibition at 1 µM was 69.5%.
